From ChEMBL document CHEMBL5053536, “Discovery of Quinazoline-2,4(1H,3H)-dione Derivatives Containing 3-Substituted Piperizines as Potent PARP-1/2 Inhibitors─Design, Synthesis, In Vivo Antitumor Activity, and X-ray Crystal Structure Analysis” (J Med Chem, 2021)
Calls of active or inactive are those of the source. The rule behind the calls is not given here.

Key:
[1] = AUC(0 to t) in Beagle dog at 20 mg/kg, po measured upto 24 hrs by LC-MS/MS analysis; format: ADME, organism-based, Canis lupus familiaris; parameters: time < 24 hrs, dose 20 mg/kg, route po; conditions: in vivo
[2] = AUC(0 to t) in Sprague-Dawley rat at 20 mg/kg, po measured upto 24 hrs by LC-MS/MS analysis; format: ADME, organism-based; parameters: time < 24 hrs, dose 20 mg/kg, route po; conditions: in vivo
[3] = Cmax in Beagle dog at 20 mg/kg, po measured upto 24 hrs by LC-MS/MS analysis; format: ADME, organism-based, Canis lupus familiaris; parameters: time < 24 hrs, dose 20 mg/kg, route po; conditions: in vivo
[4] = AUC(0 to infinity) in Sprague-Dawley rat at 20 mg/kg, po measured upto 24 hrs by LC-MS/MS analysis; format: ADME, organism-based; parameters: time < 24 hrs, dose 20 mg/kg, route po; conditions: in vivo
[5] = Acute toxicity in po dosed Crl: […](ICR)-BR mouse after 14 days; format: organism-based; conditions: in vivo, time 14 day
U-87 MG [6] = assay: Antitumor activity against human U-87MG cells xenografted in BALB/c mouse assessed as T/C ratio at 25 mg/kg, po administered once daily for 5 days and measured upto 32 days in presence of 30 mg/kg TMZ by MRI scanner; format: functional, U-87MG ATCC; conditions: time <= 32 day
MDA-MB-436 = assay: Antitumor activity against human MDA-MB-436 cells xenografted in athymic nu/nu mouse assessed as tumor growth inhibition at 20 to 80 mg/kg, po administered once daily for 17 days; format: functional; conditions: dose 20-80 mg/kg, time 17 day
MX1 [7] = assay: Antitumor activity against human MX1 cells xenografted in athymic nu/nu mouse assessed as tumor growth inhibition at 12.5 to 25 mg/kg, po administered once daily for 5 days and measured on day 7 in presence of 50 mg/kg TMZ; format: functional; conditions: dose 12.5-25 mg/kg, time 7 day
U-87 MG [8] = assay: Antitumor activity against human U-87MG cells xenografted in BALB/c mouse assessed as reduction in tumor volume at 25 mg/kg, po administered once daily for 5 days and measured on day 8 in presence of 30 mg/kg TMZ by MRI scanner (reference value: 202 +/- 120.4 mm3); format: functional, U-87MG ATCC; conditions: time 8 day
U-87 MG [9] = assay: Antitumor activity against human U-87MG cells xenografted in BALB/c mouse assessed as T/C ratio at 50 mg/kg, po administered once daily for 5 days and measured upto 32 days in presence of 30 mg/kg TMZ by MRI scanner; format: functional, U-87MG ATCC; conditions: time <= 32 day
[10] = AUC(0 to t) in BALB/c mouse at 25 mg/kg, po measured upto 24 hrs by LC-MS/MS analysis; format: ADME, organism-based; parameters: dose 25 mg/kg, time < 24 hrs, route po; conditions: in vivo
Daoy = assay: Cytotoxicity against human Daoy cells assessed as reduction in cell viability at 5 to 10 uM incubated for 72 hrs in presence of TMZ by MTT assay; format: functional, cell-based; conditions: dose 5-10 µM
MX1 [11] = assay: Inhibition of PARP1/2 in human MX1 cells assessed as reduction in PAR formation at 1 to 10 uM after 24 hrs by Western blot analysis; format: cell-based; conditions: dose 1-10 µM
[12] = MRT(0 to infinity) in Sprague-Dawley rat at 20 mg/kg, po measured upto 24 hrs by LC-MS/MS analysis; format: ADME, organism-based; conditions: in vivo
U-251 [13] = assay: Cytotoxicity against TMZ-resistant human U-251 cells assessed as reduction in cell viability at 5 to 10 uM incubated for 72 hrs in presence of TMZ by MTT assay; format: functional, cell-based; conditions: dose 5-10 µM
[14] = Half life in Beagle dog at 0.4 mg/kg, iv measured upto 24 hrs by LC-MS/MS analysis; format: ADME, organism-based, Canis lupus familiaris; conditions: in vivo
[15] = Half life in BALB/c mouse at 25 mg/kg, po measured upto 24 hrs by LC-MS/MS analysis; format: ADME, organism-based; conditions: in vivo
[16] = target: T1, Poly [ADP-ribose] polymerase 2 (Homo sapiens, UniProt Q9UGN5); assay: Binding affinity to recombinant human PARP2 assessed as dissociation constant by SPR assay
U-87 MG [17] = assay: Cytotoxicity against human U87MG cells assessed as reduction in cell viability at 5 to 10 uM incubated for 72 hrs in presence of TMZ by MTT assay; format: functional, cell-based; conditions: U-87MG ATCC, dose 5-10 µM
Mus musculus = assay: Toxicity in BALB/c mouse xenografted with human U-87MG cells assessed as effect on body weight at 50 mg/kg, po administered once daily for 5 days and measured on day 8 in presence of 30 mg/kg TMZ (reference value: 18.5 +/- 1 g); format: organism-based; conditions: in vivo, 192 h, time 8 day
U-251 [18] = assay: Cytotoxicity against human U251 cells assessed as reduction in cell viability at 5 to 10 uM incubated for 72 hrs in presence of TMZ by MTT assay; format: functional, cell-based; conditions: dose 5-10 µM
U-251 [19] = assay: Inhibition of PARP1/2-mediated DNA repair in human U-251 cells assessed as increase in […] expression at 1 to 10 uM after 24 hrs in presence of TMZ by Western blot analysis; format: cell-based; conditions: dose 1-10 µM
T98G [20] = assay: Inhibition of PARP1/2-mediated DNA repair in human T98G cells assessed as reduction in PAR formation at 1 to 10 uM after 24 hrs in presence of TMZ by Western blot analysis; format: cell-based; conditions: dose 1-10 µM
T98G [21] = assay: Cytotoxicity against human T98G cells assessed as reduction in cell viability at 5 to 10 uM incubated for 72 hrs in presence of TMZ by MTT assay; format: functional, cell-based; conditions: dose 5-10 µM
[22] = target: Poly [ADP-ribose] polymerase 1 (Homo sapiens, UniProt P09874); assay: Binding affinity to recombinant human PARP1 assessed as dissociation half life by SPR assay
A 172 = assay: Cytotoxicity against human A172 cells assessed as reduction in cell viability at 5 to 10 uM incubated for 72 hrs in presence of TMZ by MTT assay; format: functional, cell-based; conditions: dose 5-10 µM
[23] = Tmax in Beagle dog at 20 mg/kg, po measured upto 24 hrs by LC-MS/MS analysis; format: ADME, organism-based, Canis lupus familiaris; conditions: in vivo
MX1 [24] = assay: Antitumor activity against human MX1 cells xenografted in athymic nu/nu mouse assessed as tumor growth inhibition at 12.5 mg/kg, po administered once daily for 5 days and measured on day 17 in presence of 50 mg/kg TMZ; format: functional; conditions: MX1, 408 h, time 17 day, read-out: TGI
U-87 MG [25] = assay: Antitumor activity against human U-87MG cells xenografted in BALB/c mouse assessed as reduction in tumor volume at 50 mg/kg, po administered once daily for 5 days and measured on day 8 by MRI scanner (reference value: 202 +/- 120.4 mm3); format: functional, U-87MG ATCC; conditions: time 8 day
T98G [26] = assay: Inhibition of PARP1/2-mediated DNA repair in human T98G cells assessed as increase in […] expression at 1 to 10 uM after 24 hrs in presence of TMZ by Western blot analysis; format: cell-based; conditions: dose 1-10 µM
[27] = target: T1, Poly [ADP-ribose] polymerase 2; assay: Binding affinity to recombinant human PARP2 assessed as dissociation half life by SPR assay
U-87 MG [28] = assay: Antitumor activity against human U-87MG cells xenografted in BALB/c mouse assessed as reduction in tumor volume at 50 mg/kg, po administered once daily for 5 days and measured on day 32 in presence of 30 mg/kg TMZ by MRI scanner; format: functional, U-87MG ATCC; conditions: time 32 day
[29] = Tmax in BALB/c mouse at 25 mg/kg, po measured upto 24 hrs by LC-MS/MS analysis; format: ADME, organism-based; conditions: in vivo
[30] = target: T1, Poly [ADP-ribose] polymerase 2; assay: Inhibition of recombinant human PARP2 using NAD+ as substrate incubated for 1 hr by ELISA

T1 sequence (Q9UGN5 whole entry): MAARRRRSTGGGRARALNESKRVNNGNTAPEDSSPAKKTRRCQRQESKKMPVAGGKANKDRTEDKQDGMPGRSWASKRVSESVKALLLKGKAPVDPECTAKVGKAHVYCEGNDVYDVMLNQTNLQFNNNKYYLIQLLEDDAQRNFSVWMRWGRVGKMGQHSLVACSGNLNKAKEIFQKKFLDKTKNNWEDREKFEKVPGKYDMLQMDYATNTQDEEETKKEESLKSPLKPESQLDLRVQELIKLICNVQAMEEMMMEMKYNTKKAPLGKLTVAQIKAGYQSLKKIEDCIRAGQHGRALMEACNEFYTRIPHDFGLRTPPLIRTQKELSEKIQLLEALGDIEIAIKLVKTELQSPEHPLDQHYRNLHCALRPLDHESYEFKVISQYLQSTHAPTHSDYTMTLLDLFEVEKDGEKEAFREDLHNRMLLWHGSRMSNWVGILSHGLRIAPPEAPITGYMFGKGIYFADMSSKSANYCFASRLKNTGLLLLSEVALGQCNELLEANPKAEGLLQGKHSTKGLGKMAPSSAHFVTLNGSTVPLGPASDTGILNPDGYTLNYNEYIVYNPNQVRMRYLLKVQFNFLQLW
Chain of Poly [ADP-ribose] polymerase 1 (P09874 whole entry): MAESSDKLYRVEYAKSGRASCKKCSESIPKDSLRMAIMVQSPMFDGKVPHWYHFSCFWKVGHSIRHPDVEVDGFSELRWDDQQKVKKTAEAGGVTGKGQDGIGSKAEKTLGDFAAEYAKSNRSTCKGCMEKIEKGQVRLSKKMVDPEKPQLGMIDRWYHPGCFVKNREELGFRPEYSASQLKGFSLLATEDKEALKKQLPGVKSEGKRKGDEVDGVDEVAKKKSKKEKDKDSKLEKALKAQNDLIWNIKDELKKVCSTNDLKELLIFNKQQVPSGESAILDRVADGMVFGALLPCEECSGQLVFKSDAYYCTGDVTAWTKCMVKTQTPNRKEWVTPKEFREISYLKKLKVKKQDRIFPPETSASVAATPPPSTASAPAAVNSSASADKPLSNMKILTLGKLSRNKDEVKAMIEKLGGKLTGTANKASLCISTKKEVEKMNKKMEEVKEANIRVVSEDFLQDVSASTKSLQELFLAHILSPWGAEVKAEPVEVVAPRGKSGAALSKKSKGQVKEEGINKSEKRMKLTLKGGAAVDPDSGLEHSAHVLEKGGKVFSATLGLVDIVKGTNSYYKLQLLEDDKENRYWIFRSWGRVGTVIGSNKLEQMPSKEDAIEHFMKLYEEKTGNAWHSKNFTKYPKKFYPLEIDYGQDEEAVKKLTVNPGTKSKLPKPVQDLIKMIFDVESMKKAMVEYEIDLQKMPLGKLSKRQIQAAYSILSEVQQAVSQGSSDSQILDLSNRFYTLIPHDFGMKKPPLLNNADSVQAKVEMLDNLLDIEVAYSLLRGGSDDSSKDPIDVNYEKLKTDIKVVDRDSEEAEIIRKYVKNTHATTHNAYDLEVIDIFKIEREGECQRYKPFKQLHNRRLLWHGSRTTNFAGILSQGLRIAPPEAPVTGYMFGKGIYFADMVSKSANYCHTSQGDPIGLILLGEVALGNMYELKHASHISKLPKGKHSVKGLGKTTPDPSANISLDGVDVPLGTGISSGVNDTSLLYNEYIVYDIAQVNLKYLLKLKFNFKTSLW

Compound: CC[C@@H]1CN(C(=O)c2cc(Cn3c(=O)[nH]c(=O)c4ccccc43)ccc2F)CCN1CC
- AUC(0-t) at 24 h [1]: 34200 ng·h/mL
- AUC(0-t) at 24 h [2]: 330 ng·h/mL
- Cmax [3]: 6440 ng/mL
- AUC(0-inf) [4]: 338 ng·h/mL
- LD50 at 336 h [5]: 3500 mg/kg
- T/C (U-87 MG [6]): 12.1%
- TGI (MDA-MB-436): 68%
- TGI (MX1 [7]): >90%
- Activity (U-87 MG [8]): 0 mm3
- T/C (U-87 MG [9]): 14.1%
- AUC(0-t) at 24 h [10]: 555 ng·h/mL
- Activity (Daoy): Active
- inhibition (MX1 [11]): Active
- MRT inf [12]: 82.2 min
- Activity (U-251 [13]): Active
- half-life [14]: 82.2 min
- half-life [15]: 34.2 min
- Kd [16]: 0.0515 µM
- Activity (U-87 MG [17]): Active
- Activity (Mus musculus): 16.3 g
- Activity (U-251 [18]): Active
- inhibition (U-251 [19]): Active
- inhibition (T98G [20]): Active
- Activity (T98G [21]): Active
- T1/2 [22]: 75.7 min
- Activity (A 172): Active
- Tmax [23]: 30 min
- inhibition in vivo at 12.5 mg/kg (MX1 [24]): 71.5%
- Activity (U-87 MG [25]): 218.6 mm3
- inhibition (T98G [26]): Active
- T1/2 [27]: 5.48 min
- Activity (U-87 MG [28]): 11.9 mm3
- Tmax [29]: 30 min
- IC50 [30]: 0.0231 µM
